Experiments:
[1] = tested on: MES-induced seizure spread; experiment: Maximal Electroshock Seizure (MES) test, mice i.p.; format: in vivo; conditions: for MES, number of animals protected / total number of animals tested: mice i.p.
Text: (§1) The fluoro derivatives synthesized were submitted to the National Institute of Neurological Disorders and Stroke (NINDS) for evaluation in a standard panel of assays. Two convulsant tests (MES and scMET), and a toxicity screen (rotorod in mice, positional sense and gait in rats) were employed for evaluating the compounds activity as neuroprotecting agents. These testing procedures are described in detail in Molecular and Cellular Targets for Anti-epileptic Drugs, eds. G. Avanzini, G. Regesta, P. Tanganelli, M. Avoli, 1997, John Libbey & Company Ltd, pp 191-198. The felbamate derivatives were evaluated for anticonvulsant activity following intraperitoneal (i.p.) administration in mice and oral administration in rats.
The MES test is a model for generalized tonic-clonic seizures and is used to identify compounds which prevent seizure spread. The behavioral and electrographic seizures generated in this model are consistent with the human disorder. In the MES test, an electrical stimulus of 0.2 s in duration (50 mA in mice and 150 mA in rat at 60Hz) was delivered via corneal electrodes primed with an electrolyte solution containing an anesthetic agent. […] Rats were tested at time intervals between 0.25 and 4 hours following a standard oral dose of 30 mg/kg. Abolition of the hindlimb tonic extensor component indicates the test compound's ability to inhibit MES-induced seizure spread.
(§2) For the MES and scMET tests the data is presented in the form of the number of animals protected by the administered compound / total number of animals tested. […] Qualitative data was obtained for fluoro felbamate 12 (Tables 1 and 2A), fluoro monocarbamate felbamate 13 (Tables 1 and 2B), and fluorodioxo 16 (Tables 1 and 2C) and for cyclic felbamate 21 (Tables 5 and 6B) and cyclic monocarbamate 22 (Tables 5 and 6A). More extensive quantitative data was also obtained for fluoro felbamate 12 in mice (Table 3) and rats (Table 4).

[2] = tested on: pentylenetetrazol; experiment: Subcutaneous Metrazol seizure test (scMET), mice i.p.; format: in vivo, Carworth Farms No. 1 mice; conditions: mice i.p.
Text: as §1
This is a model that primarily identifies compounds that raise seizure threshold. With some minor exceptions, the pharmacological profile of the scMET seizure model is consistent with the human condition. The scMET test utilizes a dose of pentylenetetrazol (85 mg/kg in Carworth Farms No. 1 mice and 70 mg/kg in Sprague-Dawley rats) that induces clonic seizures lasting for a period of at least five seconds in 97 % (CD97) of animals tested. At the anticipated time of testing the convulsant is administered subcutaneously. The test compound is administered intraperitoneally in mice and orally in rats. Animals are observed over a 30 minute period. Absence of clonic spasms in the observed time period indicates a compound's ability to abolish the effect of pentylenetetrazol on seizure threshold.
as §2

[3] = tested on: rats; experiment: Minimal neurotoxicity (TOX), positional sense and gait and stance tests, rats p.o.; format: in vivo; conditions: rat p.o., 30 mg/kg
Text: as §1, with “G. Avanzini, G. Regesta, P. Tanganelli, M. Avoli, 1997, John Libbey & Company Ltd, pp 191-198.” left out
Rats are examined for behavioral toxicity by the positional sense test and a gait and stance test. […] In the gait and stance test, neurotoxicity is indicated by a circular or zigzag gait, ataxia, abnormal spread of the legs, abnormal posture, tremor hyperactivity, lack of exploratory behavior, somnolence, stupor or catalepsy. […]

[4] = tested on: MES-induced seizure spread; experiment: Maximal Electroshock Seizure (MES) test, rats p.o.; format: in vivo, rat; conditions: for MES, number of animals protected / total number of animals tested: rat p.o., 30 mg/kg; for anti-seizure activity (in words): rats
Text: as §1
The MES test is a model for generalized tonic-clonic seizures and is used to identify compounds which prevent seizure spread. The behavioral and electrographic seizures generated in this model are consistent with the human disorder. In the MES test, an electrical stimulus of 0.2 s in duration (50 mA in mice and 150 mA in rat at 60Hz) was delivered via corneal electrodes primed with an electrolyte solution containing an anesthetic agent. Mice were tested at 30 minutes and 4 hours following doses of 30, 100 and 300 mg/kg of test compound. Rats were tested at time intervals between 0.25 and 4 hours following a standard oral dose of 30 mg/kg. Abolition of the hindlimb tonic extensor component indicates the test compound's ability to inhibit MES-induced seizure spread.
as §2

[5] = tested on: mice; experiment: Minimal neurotoxicity (TOX), rotorod test, mice i.p.; format: in vivo; conditions: mice i.p.
Text: as §1, with “G. Avanzini, G. Regesta, P. Tanganelli, M. Avoli, 1997, John Libbey & Company Ltd, pp 191-198.” left out, “rats. […]” for “rats.”

Row | SMILES | MES, number of animals protected / total number of animals tested ([1]; 30 mg/kg, 0.5h) | MES, number of animals protected / total number of animals tested ([1]; 30 mg/kg, 4.0h) | MES, number of animals protected / total number of animals tested ([1]; 100 mg/kg, 0.5h) | MES, number of animals protected / total number of animals tested ([1]; 300 mg/kg, 0.5h) | ScMET, number of animals protected / total number of animals tested ([2]; 30 mg/kg, 0.5h) | ScMET, number of animals protected / total number of animals tested ([2]; 100 mg/kg, 0.5h) | ScMET, number of animals protected / total number of animals tested ([2]; 300 mg/kg, 0.5h) | TOX, number of animals exhibiting toxic effects / total number of animals tested ([3]; 0.25h) | TOX, number of animals exhibiting toxic effects / total number of animals tested ([3]; 0.5h) | TOX, number of animals exhibiting toxic effects / total number of animals tested ([3]; 1.0h) | TOX, number of animals exhibiting toxic effects / total number of animals tested ([3]; 2.0h) | TOX, number of animals exhibiting toxic effects / total number of animals tested ([3]; 4.0h) | MES, number of animals protected / total number of animals tested ([4]; 0.25h) | MES, number of animals protected / total number of animals tested ([4]; 0.5h) | MES, number of animals protected / total number of animals tested ([4]; 1.0h) | MES, number of animals protected / total number of animals tested ([4]; 2.0h) | MES, number of animals protected / total number of animals tested ([4]; 4.0h) | TOX, number of animals exhibiting toxic effects / total number of animals tested ([5]; 30 mg/kg, 0.5h) | TOX, number of animals exhibiting toxic effects / total number of animals tested ([5]; 100 mg/kg, 0.5h) | TOX, number of animals exhibiting toxic effects / total number of animals tested ([5]; 300 mg/kg, 0.5h) | also measured
1 | NC(=O)OCC(F)(CO)c1ccccc1 (stereo not shown) [fluoro monocarbamate felbamate, 2-Fluoro-2-phenyl-1,3-propanediol monocarbamate] | 0/1 | 0/1 | 2/3 | 1/1 | 0/1 | 0/1 | 1/1 | 0/4 | 0/4 | 0/4 | 0/4 | 0/4 | 0/4 | 3/4 | 0/4 | 1/4 | 0/4 | 0/4 | 3/8 | 2/4 | MES, number of animals protected / total number of animals tested ([1]; 100 mg/kg, 4.0h): 0/3; MES, number of animals protected / total number of animals tested ([1]; 300 mg/kg, 4.0h): 0/1; MES protection (in words) ([1]; mice, 100 mg/kg): moderate MES protection; ScMET, number of animals protected / total number of animals tested ([2]; 30 mg/kg, 4.0h): 0/1; ScMET, number of animals protected / total number of animals tested ([2]; 100 mg/kg, 4.0h): 0/1; ScMET, number of animals protected / total number of animals tested ([2]; 300 mg/kg, 4.0h): 0/1; TOX, number of animals exhibiting toxic effects / total number of animals tested ([5]; 30 mg/kg, 4.0h): 0/2; TOX, number of animals exhibiting toxic effects / total number of animals tested ([5]; 100 mg/kg, 4.0h): 0/4; TOX, number of animals exhibiting toxic effects / total number of animals tested ([5]; 300 mg/kg, 4.0h): 0/2
2 | O=C1NC(=O)C(F)(c2ccccc2)CO1 (stereo not shown) [fluoro dioxo, 5-Fluoro-5-phenyl-1,3-oxazinane-2,4-dione] | 0/1 | 0/1 | 0/3 | 0/1 | 0/1 | 0/1 | 0/1 | 0/4 | 0/4 | 0/4 | 0/4 | 0/4 | 0/4 | 1/4 | 1/4 | 1/4 | 2/4 | 0/4 | 0/8 | 1/4 | anti-seizure activity (in words) ([1]; mice): inactive; MES, number of animals protected / total number of animals tested ([1]; 100 mg/kg, 4.0h): 0/3; MES, number of animals protected / total number of animals tested ([1]; 300 mg/kg, 4.0h): 0/1; ScMET, number of animals protected / total number of animals tested ([2]; 30 mg/kg, 4.0h): 0/1; ScMET, number of animals protected / total number of animals tested ([2]; 100 mg/kg, 4.0h): 0/1; ScMET, number of animals protected / total number of animals tested ([2]; 300 mg/kg, 4.0h): 0/1; anti-seizure activity (in words) [4]: strong anti-seizure activity; TOX, number of animals exhibiting toxic effects / total number of animals tested ([5]; 30 mg/kg, 4.0h): 0/2; TOX, number of animals exhibiting toxic effects / total number of animals tested ([5]; 100 mg/kg, 4.0h): 0/4; TOX, number of animals exhibiting toxic effects / total number of animals tested ([5]; 300 mg/kg, 4.0h): 0/2
3 | O=C1NC(O)C(c2ccccc2)CO1 (stereo not shown) [Cyclic MCF] | 0/1 |  | 0/3 | 1/1 | 0/1 | 2/5 | 2/5 | 0/4 | 0/4 | 0/4 | 0/4 | 0/4 | 0/4 | 0/4 | 1/4 | 2/4 | 3/4 | 0/4 | 0/8 | 0/4 | MES, number of animals protected / total number of animals tested ([1]; 30 mg/kg, 2.0h): 0/1; MES, number of animals protected / total number of animals tested ([1]; 100 mg/kg, 2.0h): 2/3; MES, number of animals protected / total number of animals tested ([1]; 300 mg/kg, 2.0h): 1/1; ScMET, number of animals protected / total number of animals tested ([2]; 30 mg/kg, 2.0h): 0/1; ScMET, number of animals protected / total number of animals tested ([2]; 100 mg/kg, 2.0h): 0/1; ScMET, number of animals protected / total number of animals tested ([2]; 300 mg/kg, 2.0h): 0/1; anti-seizure activity (in words) [4]: potent activity; TOX, number of animals exhibiting toxic effects / total number of animals tested ([5]; 30 mg/kg, 2.0h): 0/2; TOX, number of animals exhibiting toxic effects / total number of animals tested ([5]; 100 mg/kg, 2.0h): 0/4; TOX, number of animals exhibiting toxic effects / total number of animals tested ([5]; 300 mg/kg, 2.0h): 0/2

— patent EP1282414B1, “FELBAMATE DERIVED COMPOUNDS FOR TREATING NEUROPATHIC PAIN” (University of Virginia Patent Foundation, priority 2000, dated 2001)
